This is an account of results in US12583858B2 (Genentech, Inc., priority 2015, dated 2026).

The target of the test is T1, TDO2 (Homo sapiens, UniProt P48775).
T1 construct: decreased levels of NFK in SW48 cells (high TDO expressing cells)
T1 sequence (P48775 whole entry): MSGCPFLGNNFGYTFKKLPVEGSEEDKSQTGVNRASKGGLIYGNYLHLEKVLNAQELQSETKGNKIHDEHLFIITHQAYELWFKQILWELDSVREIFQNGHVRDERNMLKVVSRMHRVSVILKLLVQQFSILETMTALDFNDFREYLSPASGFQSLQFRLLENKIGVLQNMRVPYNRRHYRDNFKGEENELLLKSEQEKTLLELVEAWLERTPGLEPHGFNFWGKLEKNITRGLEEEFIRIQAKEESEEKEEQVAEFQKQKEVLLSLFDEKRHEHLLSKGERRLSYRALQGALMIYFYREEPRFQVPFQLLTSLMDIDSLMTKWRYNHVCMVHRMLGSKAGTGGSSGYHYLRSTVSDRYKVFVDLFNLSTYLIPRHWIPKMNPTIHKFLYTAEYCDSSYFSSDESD
Nature of the test: TDO2 cell assay (NFK GreenScreen, SW48 cells). Conditions: SW48 cells (high TDO expressing), 200 uM tryptophan, 24 hours; Table 3; read-out: TDO2 Cell Fluor EC50. The class given is cell-based.
Procedure: The NFK GreenScreen™ (NTRC, Netherlands) uses a specific chemical probe that binds to N-Formylkynurenine (NFK), a product of tryptophan catabolism facilitated by IDO or TDO and causes fluorescence at 510 nm when excited at 410 nm. […] The assay is multiplexed with Cell Titer-Glo® (Promega) to determine if compounds are cytotoxic. […] Cells are counted on a Vi-Cell (Beckman Coulter). SW48 cells are diluted to 1×10^6 cells/ml in assay media. A172 cells are diluted to 0.24×10^6 cells/ml in assay media. […] 5 ul of assay media containing 1.2 mM tryptophan are added to the SW48 cells for a final concentration of 200 uM tryptophan in each well. 5 ul of assay media containing 600 uM tryptophan and 600 ng/ml IFNγ are added to the A172 cells for a final concentration of 100 uM tryptophan and 100 ng/ml IFNγ in each well. The final DMSO concentration is 0.5%. Cell plates are placed at room temperature in a closed TC hood with the blower off to allow cells to settle for approximately 30 min. Plates are then moved to an incubator set at 37° C., 5% CO2 for 24 hours. After the 24 hour compound incubation, 8 ul of NFK green reagent is added to each well with a Multidrop™ Combi dispenser (Thermo Scientific). Plates are sealed and incubated at 37° C., 5% CO2 for 5 hours, then read on a PHERAstar® (BMG labtech). Data are analyzed by normalizing to DMSO and high inhibitor controls. After the plates have been read for NFK green, 25 ul of Cell Titer-Glo® (Promega) are added to each well, incubated for 15 minutes at room temperature, and read on the Envision (Perkin Elmer). Cell Titer-Glo data are analyzed by normalizing to the DMSO controls. Four-parameter curve fitting is used and EC50 data are reported.
`NC(=O)c1ccc2c(c1)CCC(C1c3ccccc3-c3cncn31)C2O` (single isomer, unassigned) [Example 60a]: the EC50 is 0.48 µM. In the case of `NC(=O)c1ccc2c(c1)CCC(C1c3ccccc3-c3cncn31)C2O` (single isomer, unassigned) [Example 60b], the EC50 was determined as 4.1 µM. On to `NC(=O)c1ccc2c(c1)CCC(C1c3ccccc3-c3cncn31)C2O` (single isomer, unassigned) [Example 60d], for which the EC50 is 0.74 µM.

In the case of `CC1(O)CCOCC1C1c2ccccc2-c2cncn21` (single isomer, unassigned) [Example 61a], the EC50 was determined as 0.57 µM.

As for `CC1(O)CCOCC1C1c2ccccc2-c2cncn21` (single isomer, unassigned) [Example 61b], the EC50 was found to be 2.6 µM.

With `CC1(O)CCOCC1C1c2ccccc2-c2cncn21` (single isomer, unassigned) [Example 61c], the EC50 is 9.1 µM. Take `CC1(O)CCOCC1C1c2ccccc2-c2cncn21` (single isomer, unassigned) [Example 61d]: the EC50 was determined as 21 µM. The result for `N#Cc1ccc2c(c1)CCC(C1c3ccccc3-c3cncn31)C2O` (single isomer, unassigned) [Example 62a] reads 10 µM.

Turning to `N#Cc1ccc2c(c1)CCC(C1c3ccccc3-c3cncn31)C2O` (single isomer, unassigned) [Example 62b], the EC50 stood at 0.31 µM. For the compound `N#Cc1ccc2c(c1)CCC(C1c3ccccc3-c3cncn31)C2O` (single isomer, unassigned) [Example 62c], the concentration for a half-maximal effect (EC50) stood at 6.6 µM.

As for `N#Cc1ccc2c(c1)CCC(C1c3ccccc3-c3cncn31)C2O` (single isomer, unassigned) [Example 62d], the EC50 was found to be 0.082 µM. The result for `N#Cc1ccc2c(c1)CCC(C1c3ccccc3-c3cncn31)C2O` (single isomer, unassigned) [Example 62e] reads 0.52 µM. The value for `N#Cc1ccc2c(c1)CCC(C1c3ccccc3-c3cncn31)C2O` (single isomer, unassigned) [Example 62f] was 2.5 µM. The value for `N#Cc1ccc2c(c1)CCC(C1c3ccccc3-c3cncn31)C2O` (single isomer, unassigned) [Example 62g] was 14 µM; that for `OC1c2ncccc2CCC1C1c2ccccc2-c2cncn21` (single isomer, unassigned) [Example 63b] was 19 µM.

For `CS(=O)(=O)N1CC[C@@H]([C@@H]2c3ccccc3-c3cncn32)[C@H](O)C1` (single isomer, unassigned) [Example 64b], the EC50 was 0.087 µM. As to `CS(=O)(=O)N1CC[C@@H]([C@H]2c3ccccc3-c3cncn32)[C@H](O)C1` (single isomer, unassigned) [Example 64d], the EC50 is 2.5 µM. As for `CC1(C)COCC(C2c3ccccc3-c3cncn32)C1O` (single isomer, unassigned) [Example 66b], the EC50 is 0.19 µM. For the compound `CC1(C)COCC(C2c3ccccc3-c3cncn32)C1O` (single isomer, unassigned) [Example 66c], the concentration giving a half-maximal response (EC50) was found to be 4.8 µM. For `CC1(C)COCC(C2c3ccccc3-c3cncn32)C1O` (single isomer, unassigned) [Example 66d], the EC50 was determined as 2 µM.

For the compound `CC1(C)COCC(C2c3ccccc3-c3cncn32)C1O` (single isomer, unassigned) [Example 66f], the EC50 turned out to be 0.16 µM.

As to `CC1(C)COCC(C2c3ccccc3-c3cncn32)C1O` (single isomer, unassigned) [Example 66g], the EC50 amounted to 0.071 µM. Regarding `OC1CC2(CCC2)C1C1c2ccccc2-c2cncn21` (single isomer, unassigned) [Example 67a], the EC50 came to 1.2 µM. With `OC1CC2(CCC2)C1C1c2ccccc2-c2cncn21` (single isomer, unassigned) [Example 67b], the EC50 was over 25 µM.

For `OC1CC2(CCC2)C1C1c2ccccc2-c2cncn21` (single isomer, unassigned) [Example 67c], the EC50 was found to be 1.1 µM. Take `OC1CC2(CCC2)C1C1c2ccccc2-c2cncn21` (single isomer, unassigned) [Example 67d]: the half-maximal effective concentration (EC50) amounted to 0.24 µM.

Consider `OC1CC2(CCC2)C1C1c2ccccc2-c2cncn21` (single isomer, unassigned) [Example 67e], for which the EC50 was found to be 0.044 µM. `OC1CC2(CCC2)C1C1c2ccccc2-c2cncn21` (single isomer, unassigned) [Example 67f]: the EC50 was found to be 0.046 µM. The value for `OC1CC2(CCC2)C1C1c2ccccc2-c2cncn21` (single isomer, unassigned) [Example 67g] was 2.4 µM; that for `OC1CC2(CCC2)C1C1c2ccccc2-c2cncn21` (single isomer, unassigned) [Example 67h] was 16 µM. The result for `OC1C(C2c3ccccc3-c3cncn32)CCC12CCOCC2` (single isomer, unassigned) [Example 68b] reads 7.4 µM; that for `OC1C(C2c3ccccc3-c3cncn32)CCC12CCOCC2` (single isomer, unassigned) [Example 68c], over 25 µM.

Regarding `OC1C(C2c3ccccc3-c3cncn32)CCC12CCOCC2` (single isomer, unassigned) [Example 68d], the EC50 was over 25 µM. The result for `OC1C(C2c3ccccc3-c3cncn32)CCC12CCOCC2` (single isomer, unassigned) [Example 68e] reads 0.27 µM. Consider `OC1C(C2c3ccccc3-c3cncn32)CCC12CCOCC2` (single isomer, unassigned) [Example 68f], for which the EC50 stood at 0.12 µM. The value for `OC1C(C2c3ccccc3-c3cncn32)CCC12CCOCC2` (single isomer, unassigned) [Example 68g] was over 25 µM; that for `OC1C(C2c3ccccc3-c3cncn32)CCC12CCOCC2` (single isomer, unassigned) [Example 68h] was over 25 µM. Regarding `OC1COCCC1C1c2c(Cl)cccc2-c2cncn21` (single isomer, unassigned) [Example 69-1a], the EC50 is over 25 µM. As to `OC1COCCC1C1c2c(Cl)cccc2-c2cncn21` (single isomer, unassigned) [Example 69-1b], the EC50 is over 25 µM. `OC1COCCC1C1c2c(Cl)cccc2-c2cncn21` (single isomer, unassigned) [Example 69-1c]: the EC50 is over 25 µM. Turning to `OC1COCCC1C1c2c(Cl)cccc2-c2cncn21` (single isomer, unassigned) [Example 69-1d], the EC50 turned out to be 4.6 µM. The result for `OC1CCOCC1C1c2c(Cl)cccc2-c2cncn21` (single isomer, unassigned) [Example 69a] reads over 25 µM. As to `OC1CCOCC1C1c2c(Cl)cccc2-c2cncn21` (single isomer, unassigned) [Example 69b], the EC50 is over 25 µM. `OC1CCOCC1C1c2c(Cl)cccc2-c2cncn21` (single isomer, unassigned) [Example 69c]: the EC50 is 11 µM. Turning to `OC1CCOCC1C1c2c(Cl)cccc2-c2cncn21` (single isomer, unassigned) [Example 69d], the EC50 is over 25 µM. Take `O=S(=O)(C1CC1)N1CC[C@@H](O)[C@H]([C@H]2c3ccccc3-c3cncn32)C1` (single isomer, unassigned) [Example 70a]: the EC50 is over 25 µM. As to `O=S(=O)(C1CC1)N1CC[C@@H](O)[C@H]([C@H]2c3ccccc3-c3cncn32)C1` (single isomer, unassigned) [Example 70b], the EC50 stood at 1.1 µM. On to `O=S(=O)(C1CC1)N1CC[C@@H](O)[C@H]([C@@H]2c3ccccc3-c3cncn32)C1` (single isomer, unassigned) [Example 70c], for which the EC50 was over 25 µM. The result for `O=S(=O)(C1CC1)N1CC[C@@H](O)[C@H]([C@@H]2c3ccccc3-c3cncn32)C1` (single isomer, unassigned) [Example 70d] reads over 25 µM; that for `OC1c2cnccc2CC1C1c2ccccc2-c2cncn21` (single isomer, unassigned) [Example 71a], 17 µM; that for `OC1c2cnccc2CC1C1c2ccccc2-c2cncn21` (single isomer, unassigned) [Example 71aa], over 25 µM.

Consider `OC1c2cnccc2CC1C1c2ccccc2-c2cncn21` (single isomer, unassigned) [Example 71b], for which the concentration for a half-maximal effect (EC50) was found to be 0.63 µM. `OC1c2cnccc2CC1C1c2ccccc2-c2cncn21` (single isomer, unassigned) [Example 71bb]: the EC50 came out at 0.49 µM.

On to `OC1c2cnccc2CC1C1c2ccccc2-c2cncn21` (single isomer, unassigned) [Example 71c], for which the EC50 was over 25 µM.

Consider `OC1c2cnccc2CC1C1c2ccccc2-c2cncn21` (single isomer, unassigned) [Example 71d], for which the EC50 amounted to 1.6 µM. `OC1c2cnccc2CC1C1c2ccccc2-c2cncn21` (single isomer, unassigned) [Example 71e]: the EC50 worked out at 11 µM. As to `OC1c2cnccc2CC1C1c2ccccc2-c2cncn21` (single isomer, unassigned) [Example 71f], the EC50 was over 25 µM.

As to `OC1CC2(CC2)C1C1c2ccccc2-c2cncn21` (single isomer, unassigned) [Example 72a], the EC50 was found to be 6.6 µM. On to `OC1CC2(CC2)C1C1c2ccccc2-c2cncn21` (single isomer, unassigned) [Example 72b], for which the 50% effective concentration (EC50) stood at 0.65 µM.

As to `OC1CC2(CC2)C1C1c2ccccc2-c2cncn21` (single isomer, unassigned) [Example 72c], the EC50 was 10 µM. With `OC1CC2(CC2)C1C1c2ccccc2-c2cncn21` (single isomer, unassigned) [Example 72d], the EC50 stood at 9 µM. The value for `OC1CC2(CC2)C1C1c2ccccc2-c2cncn21` (single isomer, unassigned) [Example 72e] was 0.052 µM; that for `OC1CC2(CC2)C1C1c2ccccc2-c2cncn21` (single isomer, unassigned) [Example 72f] was 11 µM. The result for `OC1CC2(CC2)C1C1c2ccccc2-c2cncn21` (single isomer, unassigned) [Example 72g] reads 11 µM; that for `OC1CC2(CC2)C1C1c2ccccc2-c2cncn21` (single isomer, unassigned) [Example 72h], 18 µM.

Usually EC50 stands for the concentration needed to bring the measured effect to its halfway point.
